Experimental data published in patent US11401555B2, “Genetic polymorphisms associated with stroke, methods of detection and uses thereof” (CELERA CORPORATION, priority 2008, dated 2022).

Assay: Stroke statin response (SSR) in the CARE pravastatin trial: pravastatin-treated versus placebo-treated, by SNP genotype
Type: in vivo, human
Details: CARE; for HR: pravastatin vs placebo; for HR (hazard ratio for stroke, pravastatin vs placebo): rs10757274 (hCV26505812), placebo = ref; for EVENTS (number of stroke events): rs10757274, pravastatin arm; for EVENTS: stroke events in pravastatin arm

## CC[C@H](C)C(=O)O[C@H]1C[C@H](O)C=C2C=C[C@H](C)[C@H](CC[C@@H](O)C[C@@H](O)CC(=O)O)[C@H]21 [pravastatin]
hCV945276 rs89962 KRT4, DOM, genotype TG + TT, 95% CL 0.48-1.027, p 0.0683
  HR: 0.7
hCV945276 rs89962 KRT4, GEN, genotype GG, 95% CL 0.349-1.196, p 0.1641
  HR: 0.65
hCV945276 rs89962 KRT4, GEN, genotype TG, 95% CL 0.423-0.979, p 0.0397
  HR: 0.64
hCV945276 rs89962 KRT4, GEN, genotype TT, 95% CL 0.392-2.375, p 0.9381
  HR: 0.96
hCV945276 rs89962 KRT4, REC, genotype TG + GG, 95% CL 0.458-0.916, p 0.0141
  HR: 0.65
hCV1022614 rs220479 ITGAE, DOM, genotype CT + CC, 95% CL 0.541-1.024, p 0.0696
  HR: 0.74
hCV1022614 rs220479 ITGAE, GEN, genotype CC, 95% CL 0.609-1.295, p 0.5366
  HR: 0.89
hCV1022614 rs220479 ITGAE, GEN, genotype CT, 95% CL 0.257-0.887, p 0.0192
  HR: 0.48
hCV1022614 rs220479 ITGAE, GEN, genotype TT, 95% CL 0.203-4.047, p 0.8969
  HR: 0.91
hCV1022614 rs220479 ITGAE, REC, genotype CT + TT, 95% CL 0.294-0.921, p 0.0248
  HR: 0.52
hCV2091644 rs1010 VAMP8, DOM, genotype CT + CC, 95% CL 0.507-1.126, p 0.1678
  HR: 0.76
hCV2091644 rs1010 VAMP8, GEN, genotype CC, 95% CL 0.51-2.73, p 0.6997
  HR: 1.18
hCV2091644 rs1010 VAMP8, GEN, genotype CT, 95% CL 0.418-1.045, p 0.0763
  HR: 0.66
hCV2091644 rs1010 VAMP8, GEN, genotype TT, 95% CL 0.43-1.186, p 0.1928
  HR: 0.71
hCV2091644 rs1010 VAMP8, REC, genotype CT + TT, 95% CL 0.487-0.961, p 0.0284
  HR: 0.68
hCV2169762 rs1804689 HPS1, DOM, genotype TG + TT, 95% CL 0.612-1.461, p 0.8004
  HR: 0.95
hCV2169762 rs1804689 HPS1, GEN, genotype GG, 95% CL 0.372-0.924, p 0.0214
  HR: 0.59
hCV2169762 rs1804689 HPS1, GEN, genotype TG, 95% CL 0.583-1.468, p 0.7398
  HR: 0.92
hCV2169762 rs1804689 HPS1, GEN, genotype TT, 95% CL 0.266-3.694, p 0.9903
  HR: 0.99
hCV2169762 rs1804689 HPS1, REC, genotype TG + GG, 95% CL 0.529-1.006, p 0.0547
  HR: 0.73
hCV2192261 rs3213646 EXOD1, DOM, genotype CT + CC, 95% CL 0.506-1.048, p 0.0882
  HR: 0.73
hCV2192261 rs3213646 EXOD1, GEN, genotype CC, 95% CL 0.613-1.799, p 0.8592
  HR: 1.05
hCV2192261 rs3213646 EXOD1, GEN, genotype CT, 95% CL 0.328-0.898, p 0.0175
  HR: 0.54
hCV2192261 rs3213646 EXOD1, GEN, genotype TT, 95% CL 0.316-1.278, p 0.2036
  HR: 0.64
hCV2192261 rs3213646 EXOD1, REC, genotype CT + TT, 95% CL 0.379-0.857, p 0.007
  HR: 0.57
hCV7425232 rs3900940 MYH15, DOM, genotype CT + CC, 95% CL 0.468-1.102, p 0.1293
  HR: 0.72
hCV7425232 rs3900940 MYH15, GEN, genotype CC, 95% CL 0.461-2.296, p 0.9448
  HR: 1.03
hCV7425232 rs3900940 MYH15, GEN, genotype CT, 95% CL 0.365-1.022, p 0.0604
  HR: 0.61
hCV7425232 rs3900940 MYH15, GEN, genotype TT, 95% CL 0.442-1.146, p 0.1618
  HR: 0.71
hCV7425232 rs3900940 MYH15, REC, genotype CT + TT, 95% CL 0.467-0.939, p 0.0207
  HR: 0.66
hCV11450563 rs2038366, DOM, genotype GT + GG, 95% CL 0.567-1.148, p 0.2334
  HR: 0.81
hCV11450563 rs2038366, GEN, genotype GG, 95% CL 0.669-1.975, p 0.6132
  HR: 1.15
hCV11450563 rs2038366, GEN, genotype GT, 95% CL 0.381-0.986, p 0.0436
  HR: 0.61
hCV11450563 rs2038366, GEN, genotype TT, 95% CL 0.472-2.724, p 0.7789
  HR: 1.13
hCV11450563 rs2038366, REC, genotype GT + TT, 95% CL 0.463-1.064, p 0.0954
  HR: 0.7
Adjusted (age, male, current smoking, hypertension, diabetes, BMI, baseline LDL, HDL), mode DOM, genotype GA + GG
  HR (hazard ratio for stroke, pravastatin vs placebo): 0.73
Adjusted (age, male, current smoking, hypertension, diabetes, BMI, baseline LDL, HDL), mode GEN, genotype GA
  HR (hazard ratio for stroke, pravastatin vs placebo): 0.61
Adjusted (age, male, current smoking, hypertension, diabetes, BMI, baseline LDL, HDL), mode GEN, genotype GG
  HR (hazard ratio for stroke, pravastatin vs placebo): 1
Adjusted (age, male, current smoking, hypertension, diabetes, BMI, baseline LDL, HDL), mode REC, genotype GA + AA
  HR (hazard ratio for stroke, pravastatin vs placebo): 0.69
unadjusted, mode DOM, genotype AG + AA
  HR (hazard ratio for stroke, pravastatin vs placebo): 0.65
unadjusted, mode GEN, genotype AG
  HR (hazard ratio for stroke, pravastatin vs placebo): 0.58
unadjusted, mode GEN, genotype GG
  HR (hazard ratio for stroke, pravastatin vs placebo): 0.91
unadjusted, mode REC, genotype AG + GG
  HR (hazard ratio for stroke, pravastatin vs placebo): 0.69
Adjusted analysis, mode DOM, genotype GA + GG, total 1131
  EVENTS (number of stroke events): 54
Adjusted analysis, mode GEN, genotype AA, total 328
  EVENTS (number of stroke events): 18
Adjusted analysis, mode GEN, genotype GA, total 690
  EVENTS (number of stroke events): 29
Adjusted analysis, mode GEN, genotype GG, total 441
  EVENTS (number of stroke events): 25
unadjusted, mode DOM, genotype AG + AA, total 981
  EVENTS (number of stroke events): 44
unadjusted, mode GEN, genotype AA, total 315
  EVENTS (number of stroke events): 17
unadjusted, mode GEN, genotype AG, total 666
  EVENTS (number of stroke events): 27
unadjusted, mode GEN, genotype GG, total 414
  EVENTS (number of stroke events): 23
unadjusted, mode REC, genotype AG + GG, total 1080
  EVENTS (number of stroke events): 50
rs1010 VAMP8, DOM, genotype CT + CC, TOTAL 957
  EVENTS: 43
rs1010 VAMP8, GEN, genotype CC, TOTAL 271
  EVENTS: 12
rs1010 VAMP8, GEN, genotype CT, TOTAL 686
  EVENTS: 31
rs1010 VAMP8, GEN, genotype TT, TOTAL 455
  EVENTS: 26
rs1010 VAMP8, REC, genotype CT + TT, TOTAL 1141
  EVENTS: 57
rs89962 KRT4, DOM, genotype TG + TT, TOTAL 912
  EVENTS: 46
rs89962 KRT4, GEN, genotype GG, TOTAL 443
  EVENTS: 17
rs89962 KRT4, GEN, genotype TG, TOTAL 674
  EVENTS: 37
rs89962 KRT4, GEN, genotype TT, TOTAL 238
  EVENTS: 9
rs89962 KRT4, REC, genotype TG + GG, TOTAL 1117
  EVENTS: 54
rs220479 ITGAE, DOM, genotype CT + CC, TOTAL 1381
  EVENTS: 67
rs220479 ITGAE, GEN, genotype CC, TOTAL 973
  EVENTS: 52
rs220479 ITGAE, GEN, genotype CT, TOTAL 408
  EVENTS: 15
rs220479 ITGAE, GEN, genotype TT, TOTAL 46
  EVENTS: 3
rs220479 ITGAE, REC, genotype CT + TT, TOTAL 454
  EVENTS: 18
rs1804689 HPS1, DOM, genotype TG + TT, TOTAL 759
  EVENTS: 40
rs1804689 HPS1, GEN, genotype GG, TOTAL 668
  EVENTS: 30
rs1804689 HPS1, GEN, genotype TG, TOTAL 652
  EVENTS: 36
rs1804689 HPS1, GEN, genotype TT, TOTAL 107
  EVENTS: 4
rs1804689 HPS1, REC, genotype TG + GG, TOTAL 1320
  EVENTS: 66
rs2038366, DOM, genotype GT + GG, TOTAL 1177
  EVENTS: 57
rs2038366, GEN, genotype GG, TOTAL 539
  EVENTS: 29
rs2038366, GEN, genotype GT, TOTAL 638
  EVENTS: 28
rs2038366, GEN, genotype TT, TOTAL 151
  EVENTS: 10
rs2038366, REC, genotype GT + TT, TOTAL 789
  EVENTS: 38
rs3213646 EXOD1, DOM, genotype CT + CC, TOTAL 1108
  EVENTS: 51
